Assay results: patent US10004701B2, “Methods and compositions for treating infection” (UNIVERSITY OF ROCHESTER, priority 2012, dated 2018)
Structures can show the parent of a compound that is named as a salt. Where two headings read alike, the source gives them in different places.

What was measured:
Test in all cases: AK assay 384-well format, Prestwick library screening
[1] = tested on: A. baumannii strain 98-37-09; assay type: cell-based, Acinetobacter baumannii; conditions: 50 μM final drug concentration; for fold induction at 50 µM: Acinetobacter baumannii, 983709, 3 h
E. coli = assay type: cell-based, Escherichia coli; conditions: 50 μM final drug concentration; for fold induction at 50 µM: Escherichia coli, 3 h
E. cloacae = assay type: cell-based, Enterobacter cloacae; conditions: 50 μM final drug concentration; for fold induction at 50 µM: Enterobacter cloacae, 3 h
P. aeruginosa = assay type: cell-based, Pseudomonas aeruginosa; conditions: 50 μM final drug concentration; for fold induction at 50 µM: Pseudomonas aeruginosa, 3 h
E. faecium = assay type: cell-based, Enterococcus faecium; conditions: 50 μM final drug concentration; for fold induction at 50 µM: Enterococcus faecium, 3 h
K. pneumoniae = assay type: cell-based, Klebsiella pneumoniae; conditions: 50 μM final drug concentration; for fold induction at 50 µM: Klebsiella pneumoniae, 3 h
[2] = tested on: S. aureus strain USA300-0114; assay type: cell-based, Staphylococcus aureus; conditions: 50 μM final drug concentration; for fold induction at 50 µM: Staphylococcus aureus, USA300, 3 h
[3] = 384-well format, cutoff for positive-scoring molecules 3-fold increase, read-out: AK-based Prestwick Library Screening Results, A. baumannii (increase in extracellular AK activity)
[4] = 384-well format, cutoff for positive-scoring molecules 3-fold increase, read-out: AK-based Prestwick Library Screening Results, E. coli (increase in extracellular AK activity)
[5] = 384-well format, cutoff for positive-scoring molecules 3-fold increase, read-out: AK-based Prestwick Library Screening Results, E. cloacae (increase in extracellular AK activity)
[6] = 384-well format, cutoff for positive-scoring molecules 3-fold increase, read-out: AK-based Prestwick Library Screening Results, P. aeruginosa (increase in extracellular AK activity)
[7] = 384-well format, cutoff for positive-scoring molecules 3-fold increase, read-out: AK-based Prestwick Library Screening Results, E. faecium (increase in extracellular AK activity)
[8] = 384-well format, cutoff for positive-scoring molecules 3-fold increase, read-out: AK-based Prestwick Library Screening Results, K. pneumoniae (increase in extracellular AK activity)
[9] = 384-well format, cutoff for positive-scoring molecules 3-fold increase, read-out: AK-based Prestwick Library Screening Results, S. aureus (increase in extracellular AK activity)
[10] = cutoff for positive-scoring molecules 3-fold increase
[11] = planktonic A. baumannii, 384-well, cutoff for positive-scoring molecules 3-fold increase, read-out: AK-based Prestwick Library Screening Results: A. baumannii (increase in extracellular AK activity)
[12] = planktonic E. coli, 384-well, cutoff for positive-scoring molecules 3-fold increase, read-out: AK-based Prestwick Library Screening Results: E. coli (increase in extracellular AK activity)
[13] = planktonic E. cloacae, 384-well, cutoff for positive-scoring molecules 3-fold increase, read-out: AK-based Prestwick Library Screening Results: E. cloacae (increase in extracellular AK activity)
[14] = planktonic P. aeruginosa, 384-well, cutoff for positive-scoring molecules 3-fold increase, read-out: AK-based Prestwick Library Screening Results: P. aeruginosa (increase in extracellular AK activity)
[15] = planktonic E. faecium, 384-well, cutoff for positive-scoring molecules 3-fold increase, read-out: AK-based Prestwick Library Screening Results: E. faecium (increase in extracellular AK activity)
[16] = planktonic K. pneumoniae, 384-well, cutoff for positive-scoring molecules 3-fold increase, read-out: AK-based Prestwick Library Screening Results: K. pneumoniae (increase in extracellular AK activity)
[17] = planktonic S. aureus, 384-well, cutoff for positive-scoring molecules 3-fold increase, read-out: AK-based Prestwick Library Screening Results: S. aureus (increase in extracellular AK activity)
[18] = planktonic A. baumannii, positive cutoff 3-fold increase, read-out: AK-based Prestwick library screening result, A. baumannii (fold increase in extracellular AK activity)
[19] = planktonic E. coli, positive cutoff 3-fold increase, read-out: AK-based Prestwick library screening result, E. coli (fold increase in extracellular AK activity)
[20] = planktonic E. cloacae, positive cutoff 3-fold increase, read-out: AK-based Prestwick library screening result, E. cloacae (fold increase in extracellular AK activity)
[21] = planktonic P. aeruginosa, positive cutoff 3-fold increase, read-out: AK-based Prestwick library screening result, P. aeruginosa (fold increase in extracellular AK activity)
[22] = planktonic E. faecium, positive cutoff 3-fold increase, read-out: AK-based Prestwick library screening result, E. faecium (fold increase in extracellular AK activity)
[23] = planktonic K. pneumoniae, positive cutoff 3-fold increase, read-out: AK-based Prestwick library screening result, K. pneumoniae (fold increase in extracellular AK activity)
[24] = planktonic S. aureus, positive cutoff 3-fold increase, read-out: AK-based Prestwick library screening result, S. aureus (fold increase in extracellular AK activity)

C[C@H]1[C@H](NC(=O)/C(=N\OC(C)(C)C(=O)O)c2csc(N)n2)C(=O)N1S(=O)(=O)O [Aztreonam]
fold induction at 50 µM [1, 3]: 5.4 | fold induction at 50 µM (E. coli; [4]): 15.9 | fold induction at 50 µM (E. cloacae; [5]): 18.4 | fold induction at 50 µM (P. aeruginosa; [6]): 9.1 | fold induction at 50 µM (E. faecium; [7]): 1 | fold induction at 50 µM (K. pneumoniae; [8]): 2.6 | fold induction at 50 µM [2, 9]: 0.6

Timolol maleate salt
AK-based Prestwick Library Screening Results, A. baumannii (fold increase in extracellular AK activity) [1, 10]: 1.5 | AK-based Prestwick Library Screening Results, E. coli (fold increase in extracellular AK activity) (E. coli; [10]): 1.3 | AK-based Prestwick Library Screening Results, E. cloacae (fold increase in extracellular AK activity) (E. cloacae; [10]): 1.4 | AK-based Prestwick Library Screening Results, P. aeruginosa (fold increase in extracellular AK activity) (P. aeruginosa; [10]): 1.1 | AK-based Prestwick Library Screening Results, E. faecium (fold increase in extracellular AK activity) (E. faecium; [10]): 1.0 | AK-based Prestwick Library Screening Results, K. pneumoniae (fold increase in extracellular AK activity) (K. pneumoniae; [10]): 1.1 | AK-based Prestwick Library Screening Results, S. aureus (fold increase in extracellular AK activity) [2, 10]: 1.3

CCCCOc1ccc(CC(=O)NO)cc1 [Bufexamac]
fold induction at 50 µM [1, 3]: 0.5 | fold induction at 50 µM (E. coli; [4]): 0.5 | fold induction at 50 µM (E. cloacae; [5]): 0.6 | fold induction at 50 µM (P. aeruginosa; [6]): 0.5 | fold induction at 50 µM (E. faecium; [7]): 0.9 | fold induction at 50 µM (K. pneumoniae; [8]): 0.5 | fold induction at 50 µM [2, 9]: 0.4

Cc1cc(C(=O)NNCc2ccccc2)no1 [Isocarboxazid]
fold induction at 50 µM ([1]; cutoff for positive-scoring molecules 3-fold increase, read-out: AK-based Prestwick Library Screening Results, A. baumannii (fold increase in extracellular AK activity)): 1.1 | fold induction at 50 µM (E. coli; cutoff for positive-scoring molecules 3-fold increase, read-out: AK-based Prestwick Library Screening Results, E. coli (fold increase in extracellular AK activity)): 1.1 | fold induction at 50 µM (E. cloacae; cutoff for positive-scoring molecules 3-fold increase, read-out: AK-based Prestwick Library Screening Results, E. cloacae (fold increase in extracellular AK activity)): 1.5 | fold induction at 50 µM (P. aeruginosa; cutoff for positive-scoring molecules 3-fold increase, read-out: AK-based Prestwick Library Screening Results, P. aeruginosa (fold increase in extracellular AK activity)): 1.1 | fold induction at 50 µM (E. faecium; cutoff for positive-scoring molecules 3-fold increase, read-out: AK-based Prestwick Library Screening Results, E. faecium (fold increase in extracellular AK activity)): 1 | fold induction at 50 µM (K. pneumoniae; cutoff for positive-scoring molecules 3-fold increase, read-out: AK-based Prestwick Library Screening Results, K. pneumoniae (fold increase in extracellular AK activity)): 1.1 | fold induction at 50 µM ([2]; cutoff for positive-scoring molecules 3-fold increase, read-out: AK-based Prestwick Library Screening Results, S. aureus (fold increase in extracellular AK activity)): 1.5

CCC1=C[C@@H]2CN3CCc4c([nH]c5ccccc45)[C@@](C(=O)OC)(C2)[C@@H]13 [Catharanthine]
AK-based Prestwick Library Screening Results, A. baumannii (increase in extracellular AK activity) ([1]; 384-well format, […]): 0.8 | AK-based Prestwick Library Screening Results, E. coli (increase in extracellular AK activity) (E. coli; 384-well format, […]): 1.0 | AK-based Prestwick Library Screening Results, E. cloacae (increase in extracellular AK activity) (E. cloacae; 384-well format, […]): 1.0 | AK-based Prestwick Library Screening Results, P. aeruginosa (increase in extracellular AK activity) (P. aeruginosa; 384-well format, […]): 0.7 | AK-based Prestwick Library Screening Results, E. faecium (increase in extracellular AK activity) (E. faecium; 384-well format, […]): 1.0 | AK-based Prestwick Library Screening Results, K. pneumoniae (increase in extracellular AK activity) (K. pneumoniae; 384-well format, […]): 0.8 | AK-based Prestwick Library Screening Results, S. aureus (increase in extracellular AK activity) ([2]; 384-well format, […]): 0.8

COc1ccc2[nH]c3c(c2c1)CCN=C3C [Methoxy-6-harmalan]
AK-based Prestwick Library Screening Results, A. baumannii (fold increase in extracellular AK activity) ([1]; planktonic, […]): 1.3 | AK-based Prestwick Library Screening Results, E. coli (fold increase in extracellular AK activity) (E. coli; planktonic, […]): 1.4 | AK-based Prestwick Library Screening Results, E. cloacae (fold increase in extracellular AK activity) (E. cloacae; planktonic, […]): 1.4 | AK-based Prestwick Library Screening Results, P. aeruginosa (fold increase in extracellular AK activity) (P. aeruginosa; planktonic, […]): 1.2 | AK-based Prestwick Library Screening Results, E. faecium (fold increase in extracellular AK activity) (E. faecium; planktonic, […]): 1.0 | AK-based Prestwick Library Screening Results, K. pneumoniae (fold increase in extracellular AK activity) (K. pneumoniae; planktonic, […]): 1.0 | AK-based Prestwick Library Screening Results, S. aureus (fold increase in extracellular AK activity) ([2]; planktonic, […]): 0.8

CO[C@@]1(NC(=O)Cc2cccs2)C(=O)N2C(C(=O)O)=C(COC(N)=O)CS[C@@H]21 [Cefoxitin sodium salt]
fold induction at 50 µM ([1]; planktonic, cutoff for positive-scoring molecules 3-fold increase, read-out: AK-based Prestwick Library Screening Results, A. baumannii (fold increase in extracellular AK activity)): 1.3 | fold induction at 50 µM (E. coli; planktonic, cutoff for positive-scoring molecules 3-fold increase, read-out: AK-based Prestwick Library Screening Results, E. coli (fold increase in extracellular AK activity)): 20.1 | fold induction at 50 µM (E. cloacae; planktonic, cutoff for positive-scoring molecules 3-fold increase, read-out: AK-based Prestwick Library Screening Results, E. cloacae (fold increase in extracellular AK activity)): 1.2 | fold induction at 50 µM (P. aeruginosa; planktonic, cutoff for positive-scoring molecules 3-fold increase, read-out: AK-based Prestwick Library Screening Results, P. aeruginosa (fold increase in extracellular AK activity)): 0.8 | fold induction at 50 µM (E. faecium; planktonic, cutoff for positive-scoring molecules 3-fold increase, read-out: AK-based Prestwick Library Screening Results, E. faecium (fold increase in extracellular AK activity)): 1 | fold induction at 50 µM (K. pneumoniae; planktonic, cutoff for positive-scoring molecules 3-fold increase, read-out: AK-based Prestwick Library Screening Results, K. pneumoniae (fold increase in extracellular AK activity)): 3.2 | fold induction at 50 µM ([2]; planktonic, cutoff for positive-scoring molecules 3-fold increase, read-out: AK-based Prestwick Library Screening Results, S. aureus (fold increase in extracellular AK activity)): 3.4

COC1=CC(=O)C[C@@H](C)[C@]12Oc1c(Cl)c(OC)cc(OC)c1C2=O [Griseofulvin]
fold induction at 50 µM [1, 11]: 1.4 | fold induction at 50 µM (E. coli; [12]): 1.3 | fold induction at 50 µM (E. cloacae; [13]): 1.3 | fold induction at 50 µM (P. aeruginosa; [14]): 1.3 | fold induction at 50 µM (E. faecium; [15]): 1.1 | fold induction at 50 µM (K. pneumoniae; [16]): 0.9 | fold induction at 50 µM [2, 17]: 1.4

CCOC(=O)[C@H](CCc1ccccc1)N[C@@H](C)C(=O)N1[C@H](C(=O)O)C[C@@H]2CCC[C@@H]21 [Ramipril]
fold induction at 50 µM [1, 18]: 1.3 | fold induction at 50 µM (E. coli; [19]): 1.1 | fold induction at 50 µM (E. cloacae; [20]): 1.1 | fold induction at 50 µM (P. aeruginosa; [21]): 1.2 | fold induction at 50 µM (E. faecium; [22]): 1 | fold induction at 50 µM (K. pneumoniae; [23]): 1 | fold induction at 50 µM [2, 24]: 1.2

O=c1n(CCCN2CCN(c3cccc(Cl)c3)CC2)nc2ccccn12 [Trazodone hydrochloride]
fold induction at 50 µM [1, 11]: 1 | fold induction at 50 µM (E. coli; [12]): 0.9 | fold induction at 50 µM (E. cloacae; [13]): 1.3 | fold induction at 50 µM (P. aeruginosa; [14]): 1.2 | fold induction at 50 µM (E. faecium; [15]): 1 | fold induction at 50 µM (K. pneumoniae; [16]): 1 | fold induction at 50 µM [2, 17]: 0.9

Cc1c(OCC(F)(F)F)ccnc1C[S+]([O-])c1nc2ccccc2[nH]1 (centres unmarked) [Lansoprazole]
fold induction at 50 µM [1, 18]: 0.6 | fold induction at 50 µM (E. coli; [19]): 0.6 | fold induction at 50 µM (E. cloacae; [20]): 1 | fold induction at 50 µM (P. aeruginosa; [21]): 0.7 | fold induction at 50 µM (E. faecium; [22]): 0.6 | fold induction at 50 µM (K. pneumoniae; [23]): 0.5 | fold induction at 50 µM [2, 24]: 0.2
